Measured values taken from paper PMC6130198 (ACS chemical biology, 2018).

How the values were obtained:
[1] = molecular target: Fgr (Homo sapiens, UniProt P09769); assay: Z'-LYTE in vitro kinase assay; assay type: biochemical; settings: data not shown
[2] = molecular target: Syk (Homo sapiens, UniProt P43405); assay: Z'-LYTE in vitro kinase assay; assay type: biochemical; settings: data not shown
[3] = molecular target: Hck (Homo sapiens, UniProt P08631); assay: Z'-LYTE in vitro kinase assay; assay type: biochemical; settings: data not shown
Hck, sequence (P08631 whole entry): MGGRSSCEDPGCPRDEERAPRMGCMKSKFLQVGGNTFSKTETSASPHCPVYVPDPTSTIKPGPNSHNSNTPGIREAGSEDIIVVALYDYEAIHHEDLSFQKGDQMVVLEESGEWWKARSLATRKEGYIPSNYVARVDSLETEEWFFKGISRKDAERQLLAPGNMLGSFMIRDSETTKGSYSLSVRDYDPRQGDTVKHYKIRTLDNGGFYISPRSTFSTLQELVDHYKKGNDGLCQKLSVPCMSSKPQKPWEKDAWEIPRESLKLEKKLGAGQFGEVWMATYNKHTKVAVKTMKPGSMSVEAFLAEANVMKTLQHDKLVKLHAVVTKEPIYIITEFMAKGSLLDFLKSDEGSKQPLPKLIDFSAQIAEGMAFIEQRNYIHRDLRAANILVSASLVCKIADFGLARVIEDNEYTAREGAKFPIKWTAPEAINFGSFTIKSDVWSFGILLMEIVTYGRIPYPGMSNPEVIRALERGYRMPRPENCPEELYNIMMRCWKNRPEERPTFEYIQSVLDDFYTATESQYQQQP

[4] = molecular target: Fes (Homo sapiens, UniProt P07332); assay: Z'-LYTE in vitro kinase assay; assay type: biochemical; settings: data not shown
Fes, sequence (P07332 whole entry): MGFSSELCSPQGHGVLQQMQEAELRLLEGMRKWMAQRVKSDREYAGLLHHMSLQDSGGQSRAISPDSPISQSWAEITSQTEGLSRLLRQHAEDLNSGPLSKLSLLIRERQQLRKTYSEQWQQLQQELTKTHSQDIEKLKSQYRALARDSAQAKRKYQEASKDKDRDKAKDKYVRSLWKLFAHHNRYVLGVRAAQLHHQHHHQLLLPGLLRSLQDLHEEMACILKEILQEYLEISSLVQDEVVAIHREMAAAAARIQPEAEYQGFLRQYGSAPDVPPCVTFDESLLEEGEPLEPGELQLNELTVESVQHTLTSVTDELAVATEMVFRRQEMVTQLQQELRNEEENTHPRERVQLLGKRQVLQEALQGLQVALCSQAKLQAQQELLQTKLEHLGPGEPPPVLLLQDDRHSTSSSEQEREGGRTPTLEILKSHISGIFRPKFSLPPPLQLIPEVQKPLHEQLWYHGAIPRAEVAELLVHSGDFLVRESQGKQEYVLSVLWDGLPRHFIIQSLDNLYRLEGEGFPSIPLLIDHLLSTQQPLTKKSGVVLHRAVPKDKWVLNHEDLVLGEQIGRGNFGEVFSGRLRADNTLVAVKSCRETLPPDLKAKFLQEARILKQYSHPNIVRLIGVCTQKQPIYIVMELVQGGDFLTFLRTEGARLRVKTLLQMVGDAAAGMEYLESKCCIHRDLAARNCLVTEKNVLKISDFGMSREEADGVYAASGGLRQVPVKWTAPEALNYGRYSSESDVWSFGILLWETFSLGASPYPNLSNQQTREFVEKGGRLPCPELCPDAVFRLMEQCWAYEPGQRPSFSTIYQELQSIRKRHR

[5] = test system: Flt3-ITD; assay: Z'-LYTE in vitro kinase assay; assay type: biochemical; settings: stated in words only
[6] = molecular target: other myeloid Src-family kinases; assay: In vitro kinase assay; assay type: biochemical; settings: data not shown
[7] = test system: MV4–11 AML cells; assay: MV4–11 AML cell xenograft model in NSG mice; settings: 10 mg/kg once daily oral gavage, three weeks

Fgr, sequence (P09769 whole entry): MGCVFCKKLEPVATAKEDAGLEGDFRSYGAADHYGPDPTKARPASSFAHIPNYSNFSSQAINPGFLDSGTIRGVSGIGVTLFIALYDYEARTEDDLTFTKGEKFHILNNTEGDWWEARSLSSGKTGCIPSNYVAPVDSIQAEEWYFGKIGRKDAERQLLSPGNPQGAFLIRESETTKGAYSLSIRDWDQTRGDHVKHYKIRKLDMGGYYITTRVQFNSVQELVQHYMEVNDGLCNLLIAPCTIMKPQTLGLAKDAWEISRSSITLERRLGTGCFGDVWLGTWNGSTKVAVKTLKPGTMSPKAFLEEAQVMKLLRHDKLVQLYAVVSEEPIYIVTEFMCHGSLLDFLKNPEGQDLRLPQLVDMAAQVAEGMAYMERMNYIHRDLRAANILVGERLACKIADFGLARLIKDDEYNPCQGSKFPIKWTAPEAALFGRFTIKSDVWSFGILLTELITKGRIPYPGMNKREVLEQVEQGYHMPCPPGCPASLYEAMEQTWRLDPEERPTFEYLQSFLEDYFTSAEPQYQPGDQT

Row | inhibition of kinase in vitro [1] | inhibition of kinase in vitro [2] | inhibition of kinase in vitro [3] | inhibition of kinase in vitro [4] | inhibition of Flt3-ITD kinase activity in vitro [5] | IC50 [6] | SMILES | MV4–11 cells in bone marrow thin sections (human CD45 immunohistochemistry) [7] | MV4–11 cells in spleen thin sections (human CD45 immunohistochemistry) [7] | effect on leukemic cells in the peripheral blood ([7]; flow cytometry) | effect on spleen engraftment of MV4–11 cells ([7]; flow cytometry) | reduction of bone marrow engraftment of MV4–11 cells ([7]; flow cytometry)
1 | does not inhibit | does not inhibit | does not inhibit | does not inhibit | – | – | CC(C)(C)c1cc(NC(=O)Nc2ccc(-c3cn4c(n3)sc3cc(OCCN5CCOCC5)ccc34)cc2)no1 [quizartinib] | – | – | – | – | –
2 | does not inhibit | does not inhibit | does not inhibit | does not inhibit | nM inhibitor | > 100 µM | CNC(=O)c1cc(Oc2ccc(NC(=O)Nc3ccc(Cl)c(C(F)(F)F)c3)cc2)ccn1 [sorafenib] | still stained strongly for MV4–11 cells | still stained strongly for MV4–11 cells | significant reduction | no effect | no effect
3 | does not inhibit | – | does not inhibit | – | – | – | CCN(CC)CCNC(=O)c1c(C)[nH]c(/C=C2\C(=O)Nc3ccc(F)cc32)c1C [sunitinib] | – | – | – | – | –
4 | does not inhibit | does not inhibit | does not inhibit | does not inhibit | – | – | COc1cc2c(N3CCN(C(=O)Nc4ccc(OC(C)C)cc4)CC3)ncnc2cc1OCCCN1CCCCC1 [tandutinib] | – | – | – | – | –
